Where a SMILES comes first, the peptide text is derived from it. Bridges are numbered along the chain shown (N, C = ends).
System: serum calcium concentration
Assay: Biological assay of calcitonin analogs in vivo: reduction of serum calcium concentration, 2x2 parallel line assay
Set-up: species or system Rats
Procedure: The biological potency of [Des-Serine^2 -Glycine^8 -Des-Tyrosine^22 ]salmon calcitonin was determined by comparing the reduction of serum calcium concentration which followed administration by graded doses of [Des-Ser^2 -Gly^8 -Des-Tyr^22 ]SCT and synthetic salmon calcitonin standard. Rats were divided into four groups of seven animals, and each group was assigned at random to a dose of standard or test solution. Low and high doses were chosen from the linear portion of the dose-response curve. For the salmon calcitonin standard, the values were 0.7 and 2.1 ng. peptide/100 g. body weight (BW). This dose approximates 3 and 9 MU/100 g. BW. Peptides were given by subcutaneous injection (0.2 ml/100 g. BW) and blood was withdrawn 1 hour later for serum calcium determination. Sera are processed and analyzed within two hours of collection. […]. Results were analyzed by a 2×2 parallel line assay [Gaddum, J. H., J. Pharm. Pharmacol., 6, 345 (1953)]. The standard salmon calcitonin used was independently determined to contain greater than 4,000 IU/mg. [Des-Ser^2 -Gly^8 -Des-Tyr^22 ]SCT assayed at 6900 IU/mg.

Row | SMILES | biological potency (reduction of serum calcium concentration) (rats, subcutaneous injection, blood withdrawn 1 hour later, compared with synthetic salmon calcitonin standard) [IU/mg] | potency of standard, independently determined (standard salmon calcitonin used in the assay)
1 | CC(C)C[C@H](NC(=O)CNC(=O)[C@@H]1CSSC[C@H](N)C(=O)N[C@@H](CC(N)=O)C(=O)N[C@@H](CC(C)C)C(=O)N[C@@H](CO)C(=O)N[C@@H]([C@@H](C)O)C(=O)N1)C(=O)NCC(=O)N[C@@H](CCCCN)C(=O)N[C@@H](CC(C)C)C(=O)N[C@@H](CO)C(=O)N[C@@H](CCC(N)=O)C(=O)N[C@@H](CCC(=O)O)C(=O)N[C@@H](CC(C)C)C(=O)N[C@@H](Cc1c[nH]cn1)C(=O)N[C@@H](CCCCN)C(=O)N[C@@H](CC(C)C)C(=O)N[C@@H](CCC(N)=O)C(=O)N[C@H](C(=O)N1CCC[C@H]1C(=O)N[C@@H](CCCNC(=N)N)C(=O)N[C@H](C(=O)N[C@@H](CC(N)=O)C(=O)N[C@H](C(=O)NCC(=O)N[C@@H](CO)C(=O)NCC(=O)N[C@H](C(=O)N1CCC[C@H]1C(N)=O)[C@@H](C)O)[C@@H](C)O)[C@@H](C)O)[C@@H](C)O [[Des-Ser^2 -Gly^8 -Des-Tyr^22]SCT, [Des-Serine^2 -Glycine^8 -Des-Tyrosine^22]salmon calcitonin] (H-CNLSTCGLGKLSQELHKLQTPRTNTGSGTP-NH2; disulfide 1-6) | 6900 | 
2 | CC(C)C[C@H](NC(=O)[C@H](CCCCN)NC(=O)CNC(=O)[C@H](CC(C)C)NC(=O)[C@@H](NC(=O)[C@@H]1CSSC[C@H](N)C(=O)N[C@@H](CO)C(=O)N[C@@H](CC(N)=O)C(=O)N[C@@H](CC(C)C)C(=O)N[C@@H](CO)C(=O)N[C@@H]([C@@H](C)O)C(=O)N1)C(C)C)C(=O)N[C@@H](CO)C(=O)N[C@@H](CCC(N)=O)C(=O)N[C@@H](CCC(=O)O)C(=O)N[C@@H](CC(C)C)C(=O)N[C@@H](Cc1c[nH]cn1)C(=O)N[C@@H](CCCCN)C(=O)N[C@@H](CC(C)C)C(=O)N[C@@H](CCC(N)=O)C(=O)N[C@H](C(=O)N[C@@H](Cc1ccc(O)cc1)C(=O)N1CCC[C@H]1C(=O)N[C@@H](CCCNC(=N)N)C(=O)N[C@H](C(=O)N[C@@H](CC(N)=O)C(=O)N[C@H](C(=O)NCC(=O)N[C@@H](CO)C(=O)NCC(=O)N[C@H](C(=O)N1CCC[C@H]1C(N)=O)[C@@H](C)O)[C@@H](C)O)[C@@H](C)O)[C@@H](C)O [standard salmon calcitonin, Salmon calcitonin] |  | greater than 4,000 IU/mg

— patent publication US4597900A, “Des^2 -glycine^8 -des^22 -calcitonin” (Armour Pharmaceutical Co., priority 1983, dated 1986)
